In patent US6903097B2 (dated 2005) one finds melting point data, which are given here for 8 molecules.

The structures appear in SMILES notation.

For orientation: melting point means the temperature, or range, at which the solid turns liquid. Consider `O=C(NCc1ccc(Cl)cc1)c1cnc2ccc(C#CCO)cn2c1=O`, for which the melting point was 179 to 181 °C.

`CN1c2ccc(C#CCO)cc2C(O)=C(C(=O)NCc2ccc(Cl)cc2)S1(=O)=O` showed a melting point of 167 to 168 °C.

In the case of `CN1N=C(C(=O)NCc2ccc(Cl)cc2)S(=O)(=O)c2cc(C#CCO)sc21`, the melting point was 98 °C (dec.).

Consider `O=C(NCc1ccc(Cl)cc1)c1nn(-c2ccccc2)c2sc(CN3CCOCC3)cc2c1=O`, for which the melting point lay within 182 to 184 °C.

In the case of `O=C(NCc1ccc(Cl)cc1)c1ccc2sc(CN3CCOCC3)cc2c1O`, the melting point came out at 200 °C.

As for `O=C(NCc1ccc(Cl)cc1)c1coc2ccc(C#CCO)cc2c1=O`, the melting point lay within 185 to 186 °C.

Take `O=C(NCc1ccc(Cl)cc1)c1noc2ccc(C#CCO)cc2c1=O`: the melting point lay within 117 to 120 °C.

`Cn1nc(C(=O)NCc2ccc(Cl)cc2)c(=O)c2cc(C#CCO)cnc21` came in with a melting point of 201 to 206 °C.
